From US9365541B2, “Compounds for use in the treatment of parasitic diseases” (IRBM—SCIENCE PARK S.P.A., priority 2012, dated 2016) come the findings set out here.

The test system of assay [1] is Plasmodium falciparum 3D7. Briefly: P. falciparum growth inhibition assay (Pf-LDH). The format is cell-based. As to conditions: Plasmodium falciparum, Erythrocyte; P. falciparum 3D7 infected erythrocytes, 72 h incubation, PfLDH readout. Put shortly:
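P. falciparum 3D7 (chloroquine-sensitive) at 0.25% parasitemia and 2% hematocrit was incubated with compound for 72 h at 37° C under 4% CO2/3% O2/93% N2. After freeze-thaw, PfLDH activity was read at 650 nm with lactate/APAD/NBT/diaphorase mix (pH 8.0).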

The target in the next assay is T1, human HDAC1 (Homo sapiens, UniProt Q13547).
T1 construct: made in house; host or cells: HeLa (ATCC CCL-2), mammalian cells
Description: Homo sapiens HDAC1 inhibition assay (Fluor-de-Lys, enzymatic). The format is biochemical. The following applies: human HDAC enzymatic assay; read-out: hHDAC IC50. In outline: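 Product developed with trypsin developer containing 2 μM TSA to stop the reaction; fluorescence measures deacetylase activity, inversely related to inhibition.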

SMILES strings stand for the structures.

T1 sequence (Q13547 whole entry): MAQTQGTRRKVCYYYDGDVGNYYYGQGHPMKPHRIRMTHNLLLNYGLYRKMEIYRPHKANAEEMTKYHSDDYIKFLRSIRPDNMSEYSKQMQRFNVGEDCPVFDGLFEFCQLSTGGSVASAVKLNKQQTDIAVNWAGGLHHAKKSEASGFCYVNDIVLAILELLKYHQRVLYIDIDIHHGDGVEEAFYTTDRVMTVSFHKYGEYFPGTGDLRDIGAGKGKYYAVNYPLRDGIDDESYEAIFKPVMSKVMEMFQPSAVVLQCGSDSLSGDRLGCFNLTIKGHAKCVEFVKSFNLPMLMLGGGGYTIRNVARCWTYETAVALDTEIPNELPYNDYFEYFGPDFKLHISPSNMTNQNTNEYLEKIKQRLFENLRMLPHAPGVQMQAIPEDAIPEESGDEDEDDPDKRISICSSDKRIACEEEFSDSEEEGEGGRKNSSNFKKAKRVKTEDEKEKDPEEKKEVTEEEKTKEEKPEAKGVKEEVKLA

As usually defined, the EC50 is the concentration needed to bring the measured effect to its halfway point. The low end stands for an effect from little substance, the high end for a need for much substance. As usually defined, the IC50 is the concentration that inhibits the measured activity by half. In assay [1], `CNC(=O)CCCCC[C@H](NC(=O)C1CCC1(F)F)c1ncc(-c2ccc3ccncc3c2)[nH]1` (stereo partly drawn) [Entry 145, 2,2-difluoro-N-((S)-1-(5-(isoquinolin-7-yl)-1H-imidazol-2-yl)-7-(methylamino)-7-oxo-heptyl)cyclobutane-carboxamide] returned a 50% effective concentration (EC50) of 1000 to 5000 nM. At human HDAC1, the IC50 lay in the range of 1000 to 5000 nM.
In assay [1], `CNC(=O)CCCCC[C@H](NC(=O)Cc1csc2nccn12)c1ncc(-c2ccc(-c3ccn(C)n3)cc2)[nH]1` [Entry 146, (S)-7-(2-(imidazo[2,1-b]thiazol-3-yl)acetamido)-N-methyl-7-(5-(4-(1-methyl-1H-pyrazol-3-yl)phenyl)-1H-imidazol-2-yl)heptanamide] returned an EC50 of 1000 to 5000 nM. For the same compound, the half-inhibitory concentration (IC50) on human HDAC1 is 1000 to 5000 nM.
For the compound `CNC(=O)CCCCC[C@H](NC(=O)c1cncs1)c1ncc(-c2cccc3ccoc23)[nH]1` [Entry 147, (S)-N-(1-(5-(benzofuran-7-yl)-1H-imidazol-2-yl)-7-(methylamino)-7-oxoheptyl)thiazole-5-carboxamide], the EC50 in assay [1] was in the range of 1000 to 5000 nM. Besides, the IC50 at human HDAC1 fell in the range of 1000 to 5000 nM.
On to `CNC(=O)CCCCC[C@H](NC(=O)Cc1c(C)[nH]c2ccc(OC)cc12)c1nnc(-c2ccc3ccccc3c2)[nH]1` [Entry 148, (S)-7-(2-(5-methoxy-2-methyl-1H-indol-3-yl)acetamido)-N-methyl-7-(5-(naphthalen-2-yl)-4H-1,2,4-triazol-3-yl)heptanamide], for which, in assay [1], the EC50 was < 1000 nM. Further, the IC50 at human HDAC1 is < 1000 nM.
Take `CCc1nc2ccccc2n1CCC(=O)N[C@@H](CCCCCC(=O)NC)c1ncc(-c2ccc3ccccc3c2)[nH]1` [Entry 150, (S)-7-(3-(2-ethyl-1H-benzo[d]imidazol-1-yl)propanamido)-N-methyl-7-(5-(naphthalen-2-yl)-1H-imidazol-2-yl)heptanamide]: the EC50 in assay [1] is < 1000 nM. The half-maximal inhibitory concentration (IC50) on human HDAC1 is < 1000 nM.
In turn, `CNC(=O)CCCCC[C@H](NC(=O)Cn1c(=O)ncc2ccccc21)c1ncc(-c2ccc3ccccc3c2)[nH]1` [Entry 151] came in with an EC50 in assay [1] of 1000 to 5000 nM. Also, the 50% inhibitory concentration (IC50) at human HDAC1 was < 1000 nM.
Take `CNC(=O)CCCCC[C@H](NC(=O)C12CCN(CC1)CC2)c1ncc(-c2ccc3ncccc3c2)[nH]1` [Entry 152]: the EC50 in assay [1] is 1000 to 5000 nM. Further, the IC50 at human HDAC1 is < 1000 nM.
The like results for `CNC(=O)CCCCC[C@H](NC(=O)C12CCN(CC1)CC2)c1ncc(-c2ccc3cc(OC)ccc3c2)[nH]1` [Entry 153, (S)-N-(1-(5-(6-methoxynaphthalen-2-yl)-1H-imidazol-2-yl)-7-(methylamino)-7-oxo-heptyl)quinuclidine-4-carboxamide] were, in that order, < 1000 nM and < 1000 nM.
In the case of `CNC(=O)CCCCC[C@H](NC(=O)C12CCN(CC1)CC2)c1ncc(-c2ccc3cc(F)ccc3c2)[nH]1` [Entry 154, (S)-N-(1-(5-(6-fluoronaphthalen-2-yl)-1H-imidazol-2-yl)-7-(methylamino)-7-oxo-heptyl)quinuclidine-4-carboxamide], the concentration giving a half-maximal response (EC50) in assay [1] was < 1000 nM. Besides, the IC50 on human HDAC1 is < 1000 nM.
Regarding `CNC(=O)CCCCC[C@H](NC(=O)CC1=CSC2=NCCCN12)c1ncc(-c2ccc3ccncc3c2)[nH]1` [Entry 155, (S)-7-(2-(6,7-dihydro-5H-thiazolo[3,2-a]pyrimidin-3-yl)acetamido)-7-(5-(isoquinolin-7-yl)-1H-imidazol-2-yl)-N-methyl-heptanamide], the half-maximal effective concentration (EC50) in assay [1] lay in the range of 1000 to 5000 nM. The IC50 on human HDAC1 fell in the range of 1000 to 5000 nM.
The compound `CNC(=O)CCCCC[C@H](NC(=O)c1cccc(-n2cccn2)c1)c1ncc(-c2cc3ccccc3nc2OC)[nH]1` [Entry 156, (S)-N-(1-(5-(2-methoxyquinolin-3-yl)-1H-imidazol-2-yl)-7-(methylamino)-7-oxoheptyl)-3-(1H-pyrazol-1-yl)benzamide] had a concentration for a half-maximal effect (EC50) in assay [1] of 1000 to 5000 nM. Also, the IC50 on human HDAC1 was > 5000 nM.
As for `CNC(=O)CCCCC[C@H](NC(=O)Cn1ccnn1)c1ncc(-c2ccc3[nH]ncc3c2)[nH]1` [Entry 157, (S)-7-(2-(1H-1,2,3-triazol-1-yl)acetamido)-7-(5-(1H-indazol-5-yl)-1H-imidazol-2-yl)-N-methyl-heptanamide], the half-maximal effective concentration (EC50) in assay [1] was > 5000 nM. Further, at human HDAC1, the IC50 was > 5000 nM.
In the case of `CNC(=O)CCCCC[C@H](NC(=O)c1cncs1)c1ncc(-c2ccc(-c3ccn(C)n3)cc2)[nH]1` [Entry 158], in assay [1], the EC50 was < 1000 nM. The IC50 on human HDAC1 lay within 1000 to 5000 nM.
The like results for `CNC(=O)CCCCC[C@H](NC(=O)c1cncs1)c1ncc(-c2cnc3[nH]ncc3c2)[nH]1` [Entry 159, (S)-N-(1-(5-(1H-pyrazolo[3,4-b]pyridin-5-yl)-1H-imidazol-2-yl)-7-(methylamino)-7-oxoheptyl)thiazole-5-carboxamide] were, in that order, > 5000 nM and > 5000 nM.
The like results for `CNC(=O)CCCCC[C@H](NC(=O)c1cncs1)c1ncc(-c2ccc3[nH]ncc3c2)[nH]1` [Entry 160, (S)-N-(1-(5-(1H-indazol-5-yl)-1H-imidazol-2-yl)-7-(methylamino)-7-oxoheptyl)thiazole-5-carboxamide] were, in that order, < 1000 nM and 1000 to 5000 nM.
The like results for `CNC(=O)CCCCC[C@H](NC(=O)c1cncs1)c1ncc(-c2ccc3sccc3c2)[nH]1` [Entry 161, (S)-N-(1-(5-(benzo[b]thiophen-5-yl)-1H-imidazol-2-yl)-7-(methylamino)-7-oxoheptyl)thiazole-5-carboxamide] were, in that order, 1000 to 5000 nM and 1000 to 5000 nM.
As to `CNC(=O)CCCCC[C@H](NC(=O)C1CCN(C)CC1)c1ncc(-c2ccc(-n3cccn3)cc2)[nH]1` [Entry 162], the half-maximal effective concentration (EC50) in assay [1] was > 5000 nM. Also, the IC50 at human HDAC1 is > 5000 nM.
With `CNC(=O)CCCCC[C@H](NC(=O)Cc1cnc2ccccn12)c1ncc(-c2ccc(-n3cccn3)cc2)[nH]1` [Entry 163, (S)-7-(5-(4-(1H-pyrazol-1-yl)phenyl)-1H-imidazol-2-yl)-7-(2-(imidazo[1,2-a]pyridin-3-yl)acetamido)-N-methylheptanamide], in assay [1], the EC50 fell in the range of 1000 to 5000 nM. On human HDAC1, the IC50 was 1000 to 5000 nM.
For the compound `CNC(=O)CCCCC[C@H](NC(=O)c1cn2ccsc2n1)c1ncc(-c2ccc3ccccc3c2)[nH]1` [Entry 164, (S)-N-(7-(methylamino)-1-(5-(naphthalen-2-yl)-1H-imidazol-2-yl)-7-oxo-heptyl)imidazo[2,1-b]thiazole-6-carboxamide], in assay [1], the EC50 was > 5000 nM. Also, the IC50 at human HDAC1 was > 5000 nM.
For `CNC(=O)CCCCC[C@H](NC(=O)CN1CCN(C)CC1)c1ncc(-c2ccc3ccccc3c2)[nH]1` [Entry 165, (S)-N-methyl-7-(2-(4-methylpiperazin-1-yl)acetamido)-7-(5-(naphthalen-2-yl)-1H-imidazol-2-yl)heptanamide], the EC50 in assay [1] is > 5000 nM. At human HDAC1, the concentration for half-maximal inhibition (IC50) lay within 1000 to 5000 nM.
The like results for `CNC(=O)CCCCC[C@H](NC(=O)C1CNC(=O)C1)c1ncc(-c2ccc3ccccc3c2)[nH]1` (stereo partly drawn) [Entry 166, N-((S)-7-(methylamino)-1-(5-(naphthalen-2-yl)-1H-imidazol-2-yl)-7-oxoheptyl)-5-oxopyrrolidine-3-carboxamide] were, in that order, 1000 to 5000 nM and 1000 to 5000 nM.
For `CNC(=O)CCCCC[C@H](NC(=O)CCc1nnc(C)[nH]1)c1ncc(-c2ccc3ccncc3c2)[nH]1` [Entry 167], in assay [1], the concentration for a half-maximal effect (EC50) was in the range of 1000 to 5000 nM. Further, on human HDAC1, the IC50 fell in the range of 1000 to 5000 nM.
For the compound `CNC(=O)CCCCC[C@H](NC(=O)Cc1cn2ccsc2n1)c1ncc(-c2ccc3ccncc3c2)[nH]1` [Entry 168, (S)-7-(2-(imidazo[2,1-b]thiazol-6-yl)acetamido)-7-(5-(isoquinolin-7-yl)-1H-imidazol-2-yl)-N-methyl-heptanamide], the EC50 in assay [1] lay within 1000 to 5000 nM. Also, at human HDAC1, the half-inhibitory concentration (IC50) lay in the range of 1000 to 5000 nM.
In turn, `CNC(=O)CCCCC[C@H](NC(=O)Cn1cc2ccccc2n1)c1ncc(-c2ccc(-c3ccn(C)n3)cc2)[nH]1` [Entry 169, (S)-7-(2-(2H-indazol-2-yl)acetamido)-N-methyl-7-(5-(4-(1-methyl-1H-pyrazol-3-yl)phenyl)-1H-imidazol-2-yl)heptanamide] displayed a 50% effective concentration (EC50) in assay [1] of 1000 to 5000 nM. Besides, the IC50 on human HDAC1 was < 1000 nM.
The like results for `CNC(=O)CCCCC[C@H](NC(=O)C1CC1c1ccncc1)c1ncc(-c2ccc(-c3ccn(C)n3)cc2)[nH]1` (stereo partly drawn) [Entry 170, N-((S)-1-(5-(4-(1-methyl-1H-pyrazol-3-yl)phenyl)-1H-imidazol-2-yl)-7-(methylamino)-7-oxoheptyl)-2-(pyridin-4-yl)cyclopropane-carboxamide] were, in that order, 1000 to 5000 nM and 1000 to 5000 nM.
The like results for `CNC(=O)CCCCC[C@H](NC(=O)Cn1ccc(C)n1)c1ncc(-c2ccc(-c3ccn(C)n3)cc2)[nH]1` [Entry 171, (S)-N-methyl-7-(2-(3-methyl-1H-pyrazol-1-yl)acetamido)-7-(5-(4-(1-methyl-1H-pyrazol-3-yl)phenyl)-1H-imidazol-2-yl)heptanamide] were, in that order, > 5000 nM and > 5000 nM.
The like results for `CNC(=O)CCCCC[C@H](NC(=O)c1cncs1)c1ncc(-c2ccc(-n3cccn3)cc2)[nH]1` [Entry 172, (S)-N-(1-(5-(4-(1H-pyrazol-1-yl)phenyl)-1H-imidazol-2-yl)-7-(methylamino)-7-oxoheptyl)thiazole-5-carboxamide] were, in that order, < 1000 nM and 1000 to 5000 nM.
In assay [1], `CNC(=O)CCCCC[C@H](NC(=O)c1cncs1)c1ncc(-c2ccc3cc[nH]c3c2)[nH]1` [Entry 173, (S)-N-(1-(5-(1H-indol-6-yl)-1H-imidazol-2-yl)-7-(methylamino)-7-oxoheptyl)thiazole-5-carboxamide] registered a concentration for a half-maximal effect (EC50) of 1000 to 5000 nM. The IC50 on human HDAC1 lay within 1000 to 5000 nM.
In the case of `COc1ccc2[nH]c(C)c(CC(=O)N[C@@H](CCCCCC(N)=O)c3nnc(-c4ccc5ccccc5c4)o3)c2c1` [Entry 174, (S)-7-(2-(5-methoxy-2-methyl-1H-indol-3-yl)acetamido)-7-(5-(naphthalen-2-yl)-1,3,4-oxadiazol-2-yl)heptanamide], in assay [1], the concentration for a half-maximal effect (EC50) was in the range of 1000 to 5000 nM. Besides, at human HDAC1, the concentration for half-maximal inhibition (IC50) is < 1000 nM.
